Test results published in patent US6355799B1, “Substituted benzene compounds, process for their preparation, and herbicidal and defoliant compositions containing them” (ISK Americas Incorporated, priority 1997, dated 2002).

Legend:
Type in all cases: in vivo
[1] = tested on: large crabgrass (Digitaria sanguinalis, DIGSA); test: Pre-emerge test, greenhouse herbicide activity screening; conditions: pre-emerge, phytotoxicity rating 0-100 at 14 days after application
How it was run: (§1)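 Compounds in acetone were track-sprayed at 15-1000 g ai/ha (187 l/ha) on sandy loam pots: pre-emerge one day after seeding, post-emerge at 2-3 leaf stage with 0.25% v/v non-ionic surfactant. Phytotoxicity was rated 14 days later on a 0 (no damage) to 100 (complete death) scale.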

[2] = tested on: barnyardgrass (Echinochloa crus-galli, ECHCG); test: as above; conditions: pre-emerge, phytotoxicity rating 0-100 at 14 days after application
How it was run: as §1

[3] = tested on: johnsongrass (Sorghum halepense, SORHA); test: as above; conditions: pre-emerge, phytotoxicity rating 0-100 at 14 days after application
How it was run: as §1

[4] = tested on: lambsquarters (Chenopodium album, CHEAL); test: as above; conditions: pre-emerge, phytotoxicity rating 0-100 at 14 days after application
How it was run: as §1

[5] = tested on: sicklepod (Cassia obtusifolia, CASOB); test: as above; conditions: pre-emerge, phytotoxicity rating 0-100 at 14 days after application
How it was run: as §1

[6] = tested on: velvetleaf (Abutilon theophrasti, ABUTH); test: as above; conditions: pre-emerge, phytotoxicity rating 0-100 at 14 days after application
How it was run: as §1

[7] = tested on: ivyleaf morningglory (Ipomoea hederacea, IPOHE); test: as above; conditions: pre-emerge, rate 63 g ai/ha, phytotoxicity rating 0-100 at 14 days after application
How it was run: as §1

[8] = tested on: green foxtail (Setaria viridis, SETVI); test: as above; conditions: pre-emerge, phytotoxicity rating 0-100 at 14 days after application
How it was run: as §1

[9] = tested on: large crabgrass (Digitaria sanguinalis, DIGSA); test: Post-emerge test, greenhouse herbicide activity screening; conditions: post-emerge, 14 days after application, rating scale 0-100
How it was run: (§2)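 Rating: 0–100 visual injury, 14 DAA. Application: acetone, 187 l/ha, 15–1000 g ai/ha, flat-fan track sprayer with nozzle 40–45 cm above soil or canopy. Post-emerge runs used 0.25% v/v surfactant on 2–3 leaf plants.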

[10] = tested on: barnyardgrass (Echinochloa crus-galli, ECHCG); test: as above; conditions: post-emerge, 14 days after application, rating scale 0-100
How it was run: as §2

[11] = tested on: johnsongrass (Sorghum halepense, SORHA); test: as above; conditions: post-emerge, 14 days after application, rating scale 0-100
How it was run: as §2

[12] = tested on: lambsquarters (Chenopodium album, CHEAL); test: as above; conditions: post-emerge, 14 days after application, rating scale 0-100
How it was run: as §2

[13] = tested on: sicklepod (Cassia obtusifolia, CASOB); test: as above; conditions: post-emerge, 14 days after application, rating scale 0-100
How it was run: as §2

[14] = tested on: redroot pigweed (Amaranthus retroflexus, AMARE); test: as above; conditions: post-emerge, 14 days after application
How it was run: as §2

[15] = tested on: velvetleaf (Abutilon theophrasti, ABUTH); test: as above; conditions: post-emerge, 14 days after application, rating scale 0-100
How it was run: as §2

[16] = tested on: ivyleaf morningglory (Ipomoea hederacea, IPOHE); test: as above; conditions: post-emerge, 14 days after application, rating scale 0-100
How it was run: as §2

[17] = tested on: green foxtail (Setaria viridis, SETVI); test: as above; conditions: post-emerge, 14 days after application, rating scale 0-100
How it was run: as §2

[18] = tested on: redroot pigweed (Amaranthus retroflexus, AMARE); test: Pre-emerge test, greenhouse herbicide activity screening; conditions: pre-emerge, phytotoxicity rating 0-100 at 14 days after application
How it was run: (§3)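 Herbicidal damage is scored 0 (none) to 100 (complete plant death) two weeks after a simulated field spray. Rates span 15–1000 g ai/ha, delivered in acetone at 187 l/ha. For post-emergence treatments, plants have 2–3 leaves and the spray carries 0.25% v/v non-ionic surfactant.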

[19] = tested on: upland rice (Oryza sp., var. Tebonnet, RICE); test: Post-emerge test, crop safety; conditions: post-emerge, 14 days after application, rating scale 0-100
How it was run: as §1

[20] = tested on: field corn (Zea mays L., var. Dekalb 535, CORN); test: Post-emerge test, crop safety; conditions: post-emerge, 14 days after application, rating scale 0-100
How it was run: as §1

[21] = tested on: upland rice (Oryza sp., var. Tebonnet, RICE); test: Pre-emerge test, crop safety; conditions: crop damage, pre-emerge, phytotoxicity rating 0-100 at 14 days after application
How it was run: as §3

[22] = tested on: field corn (Zea mays L., var. Dekalb 535, CORN); test: Pre-emerge test, crop safety; conditions: crop damage, pre-emerge, phytotoxicity rating 0-100 at 14 days after application
How it was run: as §3

## Cc1c(Cl)cc(F)c(-n2c(=O)cc(C(F)(F)F)n(C)c2=O)c1NC(=O)OCCc1ccccc1 [4-57]
[1]; rate 63 g ai/ha
  Pre-emerge Herbicidal Activity DIGSA: 60
[1]; rate 250 g ai/ha
  Pre-emerge Herbicidal Activity DIGSA: 95
[2]; rate 63 g ai/ha
  Pre-emerge Herbicidal Activity ECHCG: 20
[2]; rate 250 g ai/ha
  Pre-emerge Herbicidal Activity ECHCG: 75
[3]; rate 63 g ai/ha
  Pre-emerge Herbicidal Activity SORHA: 10
[3]; rate 250 g ai/ha
  Pre-emerge Herbicidal Activity SORHA: 70
[4]; rate 63 g ai/ha
  Pre-emerge Herbicidal Activity CHEAL: 100
[4]; rate 250 g ai/ha
  Pre-emerge Herbicidal Activity CHEAL: 100
[5]; rate 63 g ai/ha
  Pre-emerge Herbicidal Activity CASOB: 10
[5]; rate 250 g ai/ha
  Pre-emerge Herbicidal Activity CASOB: 100
[6]; rate 63 g ai/ha
  Pre-emerge Herbicidal Activity ABUTH: 100
[6]; rate 250 g ai/ha
  Pre-emerge Herbicidal Activity ABUTH: 100
[7]
  Pre-emerge Herbicidal Activity IPOHE: 50
[8]; rate 63 g ai/ha
  Pre-emerge Herbicidal Activity SETVI: 80
[8]; rate 250 g ai/ha
  Pre-emerge Herbicidal Activity SETVI: 100
[9]; 63 g ai/ha
  phytotoxicity rating DIGSA: 10
[9]; 250 g ai/ha
  phytotoxicity rating DIGSA: 60
[10]; 63 g ai/ha
  phytotoxicity rating ECHCG: 30
[10]; 250 g ai/ha
  phytotoxicity rating ECHCG: 40
[11]; 63 g ai/ha
  phytotoxicity rating SORHA: 30
[11]; 250 g ai/ha
  phytotoxicity rating SORHA: 50
[12]; 63 g ai/ha
  phytotoxicity rating CHEAL: 95
[12]; 250 g ai/ha
  phytotoxicity rating CHEAL: 100
[13]; 63 g ai/ha
  phytotoxicity rating CASOB: 60
[13]; 250 g ai/ha
  phytotoxicity rating CASOB: 100
[14]; 63 g ai/ha, rating scale 0-100 (0 no damage, 100 complete death)
  phytotoxicity rating AMARE: 100
[14]; 250 g ai/ha, rating scale 0-100
  phytotoxicity rating AMARE: 100
[15]; 63 g ai/ha
  phytotoxicity rating ABUTH: 100
[15]; 250 g ai/ha
  phytotoxicity rating ABUTH: 100
[16]; 63 g ai/ha
  phytotoxicity rating IPOHE: 100
[16]; 250 g ai/ha
  phytotoxicity rating IPOHE: 100
[17]; 63 g ai/ha
  phytotoxicity rating SETVI: 50
[17]; 250 g ai/ha
  phytotoxicity rating SETVI: 90
[18]; rate 63 g ai/ha
  Pre-emerge Herbicidal Activity AMARE: 95
[18]; rate 250 g ai/ha
  Pre-emerge Herbicidal Activity AMARE: 100
[19]; 63 g ai/ha
  phytotoxicity rating RICE (crop damage): 50
[19]; 250 g ai/ha
  phytotoxicity rating RICE (crop damage): 80
[20]; 63 g ai/ha
  phytotoxicity rating CORN (crop damage): 40
[20]; 250 g ai/ha
  phytotoxicity rating CORN (crop damage): 90
[21]; rate 63 g ai/ha
  Pre-emerge Herbicidal Activity RICE: 20
[21]; rate 250 g ai/ha
  Pre-emerge Herbicidal Activity RICE: 70
[22]; rate 63 g ai/ha
  Pre-emerge Herbicidal Activity CORN: 0
[22]; rate 250 g ai/ha
  Pre-emerge Herbicidal Activity CORN: 45
